The target of experiment [1] is T1, glycineB site of the NMDA receptor (rat cortical membranes) (Rattus norvegicus, UniProt P35439).
T1 construct: The cortex was dissected and homogenised in 20 volumes of ice-cold 0.32M sucrose; from tissue; host or cells: brain cortex membranes of male Sprague-Dawley rats
The experiment is described as follows: [3H]5,7-DCKA binding assay. The settings on record: 10 nM [3H]5,7-DCKA. The method, then: Tissue preparation was performed according to Foster and Wong (1987). Male Sprague-Dawley rats (200-250g) were decapitated and their brains were removed rapidly. The cortex was dissected and homogenised in 20 volumes of ice-cold 0.32M sucrose using a glass-Teflon homogenizer. The homogenate was centrifuged at 1000×g for 10 min. The pellet was discarded and the supernatant centrifuged at 20,000×g for 20 min. The resulting pellet was resuspended in 20 volumes of distilled water and centrifuged for 20 min at 8000×g. Then the supernatant and the buffy coat were centrifuged three times (48,000× g for 20 min) in the presence of 5 mM Tris-HCl, pH 7.4. All centrifugation steps were carried out at 4° C. After resuspension in 5 volumes of 5 mM Tris-HCl, pH 7.4 the membrane suspension was frozen rapidly at -80° C. until the day of assay. On the day of assay the membranes were thawed and washed four times by resuspension in 5 mM Tris-HCl, pH 7.4 and centrifugation at 48,000× g for 20 min. The final pellet was suspended in assay buffer.
The amount of protein in the final membrane preparation was determined according to the method of Lowry (1951) with some modifications (Hartfree, 1972). 50 μl of Protein samples (in triplicates) were diluted to 1 ml with distilled water and treated with 0.9 ml of a solution containing 2 g potassium sodium tartrate and 10 g Na2 CO3 in 500 ml 1N NaOH and 500ml water. Blank and standard (with bovine serum albumin) were set up in the same way. The tubes were placed in a water bath at 50° C. for 10 min. and cooled at room temperature. 100 μl of a solution containing 2 g potassium sodium tartrate and 1 g CuSO4 x 5 H2 O in 90 ml water and 10 ml 1N NaOH were added. The samples were left at room temperature for at least 10 min., then 3 ml of Folin-Ciocalteu reagent (1 ml of reagent diluted with 15 ml water) was added rapidly during mixing. The tubes were again heated at 50° C. for 10 min. and cooled to room temperature. Absorbencies were then read in 1 cm cuvets at 650 nm. The final protein concentration used for our studies was between 100 and 250 μg/ml.
Incubation in both binding assays was terminated using a Millipore filter system. The samples, all in triplicate, were rinsed three times with 2.5 ml ice cold assay buffer over glass fibre filters obtained from Schleicher & Schuell under a constant vacuum. Following separation and rinse the filters were placed into scintillation liquid (5 ml; Ultima Gold) and radioactivity retained on the filters was determined by using conventional liquid scintillation counter (Hewlett Packard, Liquid Scintillation Analyser). `Total binding` was the absolute amount of radioligand bound in the absence of any additives whereas `non-specific` binding was determined in the presence of a high concentration of competitor.
[^3 H]5,7-DCKA binding assay
Experiments were performed according to the methods modified from previous groups (Canton et al., 1991; Yoneda et al., 1993). Membranes were suspended and incubated in 10 mM Tris-HCl, pH 7.4. Incubation time was 45 min at 4° C. Non-specific binding of [^3 H]5,7-DCKA was defined by the addition of unlabeled glycine at 0.1 mM. The stop-solution contained 10 mM Tris-HCl and 10 mM magnesium sulphate, pH 7.4. Filtration was performed as rapidly as possible. Displacement experiments were performed with a fixed [^3 H]5,7-DCKA concentration of 10 nM. Test compounds were diluted in water or DMSO and added in at least 5 different concentrations.

A further experiment concerns the target T2, NMDA receptor (Mus musculus, UniProt P35438).
T2 construct: from tissue; host or cells: living mice (albino Swiss males for NMDA and PTZ tests, NMR females for MES)
Description: Pentylenetetrazol (PTZ)-induced convulsions. Conditions: ip, 0.25 h, i.p., PTZ 90 mg/kg i.p., read-out: PTZ ID50. The class given is in vivo. As for the experimental part: To assess NMDA receptor antagonistic properties of the tested agents by assessing anticonvulsive effects. Additionally the role of organic acid transporters in the elimination from the brain of tested agents was assessed by using an inhibitor, Probenicid, on the duration of anticonvulsive activity.
Male albino Swiss mice (19-21 g) housed 10-15 per cage were used for the NMDA lethality test (Leander et al., 1988). For pentylenetetrazol (PTZ)-induced convulsions male albino Swiss mice (25-34 g.) housed 40 per cage (58×38×20 cm) were used while in the maximal electroshock (MES) and motor impairment tests NMR female mice (18-28 g) housed 5 per cage were employed. All animals were kept with water and food ad libittum under a 12-h light-dark cycle (light on at 6 a.m.), and at a controlled temperature (20°±0.5° C.). All experiments were performed between 10 a.m. and 5 p.m. Tested agents were injected 15 min. i.p before the induction of convulsions if not stated otherwise (see below). Mrz 2/502 was dissolved in saline added with NaOH. Most other agents were dissolved in the following solution: 0.606 g Tris; 5.0 g. glucose; 0.5 g. Tween 80; and 95 ml water. The choline and tetramethylammonium salts were dissolved in distilled water.
Pentylenetetrazol was injected at a dose of 90 mg/kg (i.p). The presence of general tonic convulsions was then scored for 30 min as this parameter is more sensitive to NMDA receptor antagonists than clonic convulsions. The pharmacological end-point was taken as the presence of tonus in the hind limbs with stretching.

Turning to `O=c1[nH]nc(O)c2c1cc1cc(F)ccc1[n+]2[O-]` [Mrz 2/516, 8-fluoro-4-hydroxy-1-oxo-1,2-dihydropyridazino[4,5-b]-quinoline 5-oxide], the IC50 (usually the concentration at which inhibition is half-maximal) in experiment [1] was found to be 300 nM. Also, the ED50 at NMDA receptor was 7.9 mg/kg.
The like results for `O=c1[nH]nc(O)c2c1cc1cc(Cl)ccc1[n+]2[O-]` [Mrz 2/502, 8-chloro-4-hydroxy-1-oxo-1,2-dihydropyridazino[4,5-b]-quinoline 5-oxide] were, in that order, 20 nM and 8.3 mg/kg.
In the case of `O=c1[nH][nH]c(=O)c2nc3ccc(F)cc3cc12` [Mrz 2/519], the IC50 in experiment [1] came to 1100 nM. The ED50 at NMDA receptor is more than 100 mg/kg.
The like results for `O=c1[nH]nc(O)c2c1cc1cc(Br)ccc1[n+]2[O-]` [Mrz 2/514, 8-bromo-4-hydroxy-1-oxo-1,2-dihydropyridazino[4,5-b]-quinoline 5-oxide] were, in that order, 10 nM and 12.8 mg/kg.
The like results for `O=c1[nH][nH]c(=O)c2nc3cc(Cl)c(Cl)cc3cc12` [Mrz 2/515] were, in that order, 530 nM and more than 100 mg/kg.
The like results for `O=c1[nH][nH]c(=O)c2nc3ccc(Cl)cc3cc12` [Mrz 2/501] were, in that order, 120 nM and more than 40 mg/kg.
In experiment [1], `O=c1[nH][nH]c(=O)c2nc3ccc(Br)cc3cc12` [Mrz 2/503] had an IC50 of 250 nM. The ED50 at NMDA receptor is more than 100 mg/kg.
